Experimental data from patent US20070037862A1, “Thiazolidinones, their production and use as pharmaceutical agents” (priority 2003, published 2007).
Read-outs that look alike come from different tables or passages of the source.

Assays:
[1] = biological target: T1, Recombinant human Plk-1 (6×His) (Homo sapiens, UniProt P53350); assay: PLK enzyme assay; assay type: biochemical
T1 construct: 6xHis; made in house; host or cells: baculovirus-infected Hi5 insect cells
Procedure: Recombinant human Plk-1 (6×His) was purified from baculovirus-infected insect cells (Hi5).
10 ng of (produced in a recombinant manner and purified) PLK enzyme is incubated for 90 minutes at room temperature with biotinylated casein and 33P-γ-ATP as a substrate in a volume of 15 μl in 384-well Greiner small-volume microtiter plates (final concentrations in the buffer: 660 ng/ml of PLK; 0.7 μmol of casein, 0.5 μmol of ATP incl. 400 nCi/ml of 33P-γ-ATP; 10 mmol of MgCl2, 1 mmol of MnCl2; 0.01% NP40; 1 mmol of DTT, protease inhibitors; 0.1 mmol of Na2VO3 in 50 mmol of HEPES, pH 7.5). To complete the reaction, 5 μl of stop solution (500 μmol of ATP; 500 mmol of EDTA; 1% Triton X100; 100 mg/ml of streptavidin-coated SPA beads in PBS) is added. After the microtiter plate is sealed by film, the beads are sedimented by centrifuging (10 minutes, 1500 rpm). The incorporation of 33P-γ-ATP in casein is intended as a measurement of enzyme activity by β-counting.
Test substances are used in various concentrations (0 μmol, as well as in the range of 0.01-30 ∥mol). The final concentration of the solvent dimethyl sulfoxide is 1.5% in all batches.

[2] = system: human MaTu breast tumor cells; assay: Proliferation assay (crystal violet); assay type: cell-based; settings: 96 h, 4 days, read-out: Inhibition of Tumor Cell Proliferation (MaTu) IC50
Procedure: Cultivated human MaTu breast tumor cells were flattened out at a density of 5000 cells/measuring point in a 96-well multititer plate in 200 μl of the corresponding growth medium. After 24 hours, the cells of one plate (zero-point plate) were colored with crystal violet (see below), while the medium of the other plates was replaced by fresh culture medium (200 μl), to which the test substances were added in various concentrations (0 μm, as well as in the range of 0.01-30 μm; the final concentration of the solvent dimethyl sulfoxide was 0.5%). The cells were incubated for 4 days in the presence of test substances. The cell proliferation was determined by coloring the cells with crystal violet: the cells were fixed by adding 20 μl/measuring point of an 11% glutaric aldehyde solution for 15 minutes at room temperature. After three washing cycles of the fixed cells with water, the plates were dried at room temperature. The cells were colored by adding 100 μl/measuring point of a 0.1% crystal violet solution (pH was set at 3 by adding acetic acid). After three washing cycles of the colored cells with water, the plates were dried at room temperature. The dye was dissolved by adding 100 μl/measuring point of a 10% acetic acid solution. The extinction was determined by photometry at a wavelength of 595 nm. The change of cell growth, in percent, was calculated by standardization of the measured values to the extinction values of the zero-point plate (=0%) and the extinction of the untreated (0 μm) cells (=100%).

[3] = Table 2, Amides, read-out: Inhibition of Plk-1 IC50

T1 sequence (P53350 whole entry): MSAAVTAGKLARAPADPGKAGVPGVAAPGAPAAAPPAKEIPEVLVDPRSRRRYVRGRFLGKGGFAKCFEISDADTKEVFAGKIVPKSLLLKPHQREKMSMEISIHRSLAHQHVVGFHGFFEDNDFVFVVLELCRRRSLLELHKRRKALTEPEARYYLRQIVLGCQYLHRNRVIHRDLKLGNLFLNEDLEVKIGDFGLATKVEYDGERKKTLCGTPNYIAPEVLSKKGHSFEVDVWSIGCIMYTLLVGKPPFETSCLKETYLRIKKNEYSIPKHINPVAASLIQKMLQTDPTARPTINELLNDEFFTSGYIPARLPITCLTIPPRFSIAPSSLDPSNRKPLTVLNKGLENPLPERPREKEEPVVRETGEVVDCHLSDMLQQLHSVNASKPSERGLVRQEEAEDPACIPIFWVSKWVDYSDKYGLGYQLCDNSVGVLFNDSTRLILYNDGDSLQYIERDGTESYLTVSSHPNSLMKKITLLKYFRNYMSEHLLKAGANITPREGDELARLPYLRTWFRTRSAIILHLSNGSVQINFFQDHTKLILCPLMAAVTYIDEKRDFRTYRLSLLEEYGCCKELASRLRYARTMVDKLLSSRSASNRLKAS

IC50 ([1]; Table 1, read-out: PLK IC50) [nM]	IC50 ([2]; Table 2, Amides) [nM]	Structure (SMILES)	also measured
3100	–	CCn1c(=O)c(=CNc2ccccc2)s/c1=C(/C#N)C(=O)NCc1ccco1 [Example 223]	–
950	–	CCCCN(C)C(=O)/C(C#N)=c1\sc(=CNc2ccccc2)c(=O)n1CC [Example 234]	–
–	1200	CCN(CC)CCNC(=O)c1c[nH]c2ccc(NC=c3s/c(=C(/C#N)C(=O)NCC(F)(F)F)n(CC)c3=O)cc12 [Example 330]	–
–	2800	CCn1c(=O)c(=CNc2ccc(CCN3CCCC3)cc2)s/c1=C(/C#N)C(=O)NCC(F)(F)F [Example 527]	–

Continued, molecule first:

Structure (SMILES)	IC50 ([1]; Table 1, read-out: PLK IC50) [nM]	IC50 ([2]; Table 2, Amides) [nM]	also measured
CCOC(=O)C(C#N)=c1sc(=CNc2ccccc2F)c(=O)n1CC (mixture of isomers) [Example 36]	160	–	–
C=CCOC(=O)C(C#N)=c1sc(=CNc2ccc(NC(=O)NCCN3CCCC3)cc2)c(=O)n1CC (mixture of isomers) [Example 47]	–	–	IC50 ([2]; Table 3, Esters): 1100 nM; IC50 ([1]; Table 3, Esters, read-out: Inhibition of Plk-1 IC50): 23 nM
CCOC(=O)C(C#N)=c1sc(=CNc2ccc(OC)c(NC(=S)N3CCOCC3)c2)c(=O)n1CC (mixture of isomers) [Example 56]	810	–	–
CCOC(=O)C(C#N)=c1sc(=CNc2ccc(C(C)=O)cc2)c(=O)n1CC (mixture of isomers) [Example 132]	–	–	IC50 ([2]; Table 3, Esters): 3100 nM
C=CCOC(=O)C(C#N)=c1sc(=CNc2ccc(C(C)=O)cc2)c(=O)n1CC (mixture of isomers) [Example 133]	–	–	IC50 ([2]; Table 3, Esters): 1400 nM
CCOC(=O)C(C#N)=c1sc(=CNc2ccc(NC(=O)COC)cc2)c(=O)n1CC [Example 19]	500	–	–
CCOC(=O)C(C#N)=c1sc(=CNc2ccc(NC(=O)NCCN3CCCC3)cc2)c(=O)n1CC [Example 74]	–	–	IC50 ([2]; Table 3, Esters): 3300 nM
CCNC(=O)/C(C#N)=c1\sc(=CNc2cccc(C(=O)NCCCN3CCCC3)c2)c(=O)n1CC [Example 169]	–	3550	–
CCn1c(=O)c(=CNc2cccc(NC(=O)C(C)(C)C)c2)s/c1=C(/C#N)C(=O)NC1(CO)CCCC1 [Example 192]	–	9700	–
CCn1c(=O)c(=CNc2ccccc2)s/c1=C(/C#N)C(=O)N1CCCC1 [Example 210]	–	4500	–
C#CCNC(=O)/C(C#N)=c1\sc(=CNc2ccc(OCCN(C)C)cc2)c(=O)n1CC [Example 307]	–	–	IC50 [1, 3]: 71 nM
CCn1c(=O)c(=CNc2ccc(OCCN(C)C)cc2)s/c1=C(/C#N)C(=O)NCC(F)F [Example 310]	–	–	IC50 [1, 3]: 74 nM
